Values joined by “and” are separate entries in the source; they are usually repeats but may differ in a detail not shown here. Equal values may be shown once. Read-outs that look alike come from different tables or passages of the source.
Assays:
ERBB2 (HER2) = ERBB2 (HER2) (Homo sapiens, UniProt P04626); experiment: SelectScreen kinase assay; details: for Inhibition at 1 µM (%): ERBB2 (HER2), ZLYTE, ATP Km app
Protocol: (§1) Selectivity profiling assays were performed by the Invitrogen SelectScreen™ Services. […] The concentration of ATP was selected to be equal to the KM, unless indicated otherwise.

FES (FPS) = FES (FPS) (Homo sapiens, UniProt P07332); experiment: SelectScreen kinase assay
Protocol: as §1

ICK = ICK (Homo sapiens, UniProt Q9UPZ9); experiment: SelectScreen kinase assay
Protocol: as §1

LTK (TYK1) = LTK (TYK1) (Homo sapiens, UniProt P29376); experiment: SelectScreen kinase assay
Protocol: as §1

MAP2K5 (MEK5) = molecular target: T1, MAP2K5 (MEK5) (Homo sapiens, UniProt Q13163); experiment: SelectScreen kinase assay
T1 sequence (Q13163 1-448): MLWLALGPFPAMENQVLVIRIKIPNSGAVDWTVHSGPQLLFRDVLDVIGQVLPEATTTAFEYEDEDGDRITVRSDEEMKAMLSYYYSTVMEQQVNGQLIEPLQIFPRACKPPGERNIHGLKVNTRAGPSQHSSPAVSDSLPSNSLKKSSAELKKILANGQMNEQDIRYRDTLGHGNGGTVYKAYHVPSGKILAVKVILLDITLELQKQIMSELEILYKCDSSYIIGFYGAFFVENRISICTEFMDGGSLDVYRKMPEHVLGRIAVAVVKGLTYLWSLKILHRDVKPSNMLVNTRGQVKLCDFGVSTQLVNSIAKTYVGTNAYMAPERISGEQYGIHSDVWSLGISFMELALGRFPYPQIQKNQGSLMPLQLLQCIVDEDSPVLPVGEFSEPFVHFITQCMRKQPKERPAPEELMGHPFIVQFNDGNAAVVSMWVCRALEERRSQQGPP
Protocol: as §1

MAPK13 (p38 delta) = molecular target: T2, MAPK13 (p38 delta) (Homo sapiens, UniProt O15264); experiment: SelectScreen kinase assay
T2 sequence (O15264 1-365): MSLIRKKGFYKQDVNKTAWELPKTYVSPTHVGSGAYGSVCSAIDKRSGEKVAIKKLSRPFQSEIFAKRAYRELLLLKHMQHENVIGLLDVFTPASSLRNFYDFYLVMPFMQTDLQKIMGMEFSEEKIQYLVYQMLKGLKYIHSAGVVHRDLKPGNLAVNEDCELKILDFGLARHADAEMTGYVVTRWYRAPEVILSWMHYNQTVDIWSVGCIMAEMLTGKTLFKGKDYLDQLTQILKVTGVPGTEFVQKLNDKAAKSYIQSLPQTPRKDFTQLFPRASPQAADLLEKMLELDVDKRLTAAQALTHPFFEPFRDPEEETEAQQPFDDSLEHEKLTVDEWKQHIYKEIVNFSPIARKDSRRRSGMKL
Protocol: as §1

MUSK = molecular target: T3, MUSK (Homo sapiens, UniProt O15146); experiment: SelectScreen kinase assay
T3 sequence (O15146 24-869): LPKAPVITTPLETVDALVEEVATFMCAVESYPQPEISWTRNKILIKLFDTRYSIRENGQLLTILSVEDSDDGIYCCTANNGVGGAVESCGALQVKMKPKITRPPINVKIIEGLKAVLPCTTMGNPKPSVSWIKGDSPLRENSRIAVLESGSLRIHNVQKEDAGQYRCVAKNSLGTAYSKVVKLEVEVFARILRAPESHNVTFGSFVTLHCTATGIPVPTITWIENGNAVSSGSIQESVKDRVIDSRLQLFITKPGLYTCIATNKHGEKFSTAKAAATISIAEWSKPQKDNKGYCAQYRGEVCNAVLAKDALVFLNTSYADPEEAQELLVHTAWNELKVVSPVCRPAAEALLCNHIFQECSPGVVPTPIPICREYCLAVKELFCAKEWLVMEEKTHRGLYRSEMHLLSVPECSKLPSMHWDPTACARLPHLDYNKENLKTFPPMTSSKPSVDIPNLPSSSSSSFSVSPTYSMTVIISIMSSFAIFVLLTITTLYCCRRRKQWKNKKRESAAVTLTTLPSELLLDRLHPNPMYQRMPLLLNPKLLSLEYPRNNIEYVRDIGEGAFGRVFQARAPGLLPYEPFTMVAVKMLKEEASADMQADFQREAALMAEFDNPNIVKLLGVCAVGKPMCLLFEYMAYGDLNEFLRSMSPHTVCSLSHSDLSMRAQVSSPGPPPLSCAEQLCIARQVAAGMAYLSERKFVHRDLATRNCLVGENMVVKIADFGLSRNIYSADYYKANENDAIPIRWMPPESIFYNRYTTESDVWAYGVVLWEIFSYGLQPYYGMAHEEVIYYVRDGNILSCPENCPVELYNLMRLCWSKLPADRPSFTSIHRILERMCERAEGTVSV
Protocol: as §1

PAK4 = PAK4 (Homo sapiens, UniProt O96013); experiment: SelectScreen kinase assay
Protocol: as §1

SPHK1 = SPHK1 (Homo sapiens, UniProt Q9NYA1); experiment: SelectScreen kinase assay
Protocol: as §1

TAOK2 (TAO1) = TAOK2 (TAO1) (Homo sapiens, UniProt Q9UL54); experiment: SelectScreen kinase assay
Protocol: as §1

TLK2 = TLK2 (Homo sapiens, UniProt Q86UE8); experiment: SelectScreen kinase assay
Protocol: as §1

TNIK = TNIK (Homo sapiens, UniProt Q9UKE5); experiment: SelectScreen kinase assay
Protocol: as §1

endogenous FES^S700C = endogenous FES^S700C (Homo sapiens, UniProt P07332, S700C); experiment: Gel-based target engagement in HL-60 neutrophils
Protocol: Data represent means ± SEM.
The term in situ is used to designate experiments in which live cell cultures are treated with inhibitor, whereas the term in vitro refers to experiments in which the inhibitor is incubated with cell lysates. Compounds were diluted in growth medium from a 1000x concentrated stock solution in DMSO. […] After 48 h, cells were treated with compound for 1 h. Cells were collected by suspension in PBS and centrifuged (1000g, 5 min, rt). Pellets were flash-frozen in liquid nitrogen and stored at −80 °C until use. For in situ treatment post-differentiation, HL-60 cells were differentiated as described above and incubated with compound for 1 h unless specified otherwise. Cells were collected by suspension for non-adherent cells and trypsinization for adherent cells. After collection, cells were centrifuged (200g, 5 min, rt) and washed in equal volume of PBS (1000g, 5 min, rt). Cell pellets were flash-frozen in liquid nitrogen and stored at −80 °C until use.

[1] = 1 h, 1 μM WEL028, 1 h preincubation
[2] = 1 µM, LanthaScreen Binding, listed as WEL028, 1 µM

Chain of endogenous FES^S700C (P07332 whole entry S700C): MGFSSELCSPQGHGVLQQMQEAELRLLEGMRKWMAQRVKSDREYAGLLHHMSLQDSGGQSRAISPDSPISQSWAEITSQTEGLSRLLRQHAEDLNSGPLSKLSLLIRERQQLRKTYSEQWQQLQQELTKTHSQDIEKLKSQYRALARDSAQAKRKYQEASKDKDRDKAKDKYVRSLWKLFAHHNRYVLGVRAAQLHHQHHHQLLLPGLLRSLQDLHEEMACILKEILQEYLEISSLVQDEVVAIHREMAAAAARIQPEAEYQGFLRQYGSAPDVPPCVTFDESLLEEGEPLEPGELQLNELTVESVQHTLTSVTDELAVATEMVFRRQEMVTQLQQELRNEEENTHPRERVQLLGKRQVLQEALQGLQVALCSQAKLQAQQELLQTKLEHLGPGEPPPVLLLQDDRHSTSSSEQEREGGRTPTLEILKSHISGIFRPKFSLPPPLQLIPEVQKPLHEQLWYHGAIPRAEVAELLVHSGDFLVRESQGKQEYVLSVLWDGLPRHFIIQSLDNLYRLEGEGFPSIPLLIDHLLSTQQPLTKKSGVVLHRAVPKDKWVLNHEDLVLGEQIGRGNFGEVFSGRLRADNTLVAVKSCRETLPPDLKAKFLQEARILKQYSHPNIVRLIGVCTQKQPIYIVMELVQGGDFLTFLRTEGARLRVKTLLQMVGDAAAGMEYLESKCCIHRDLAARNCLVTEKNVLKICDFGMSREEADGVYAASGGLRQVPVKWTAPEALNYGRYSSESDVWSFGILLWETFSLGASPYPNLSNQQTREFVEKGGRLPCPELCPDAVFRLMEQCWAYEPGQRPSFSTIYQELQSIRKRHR
Chain of SPHK1 (Q9NYA1 whole entry): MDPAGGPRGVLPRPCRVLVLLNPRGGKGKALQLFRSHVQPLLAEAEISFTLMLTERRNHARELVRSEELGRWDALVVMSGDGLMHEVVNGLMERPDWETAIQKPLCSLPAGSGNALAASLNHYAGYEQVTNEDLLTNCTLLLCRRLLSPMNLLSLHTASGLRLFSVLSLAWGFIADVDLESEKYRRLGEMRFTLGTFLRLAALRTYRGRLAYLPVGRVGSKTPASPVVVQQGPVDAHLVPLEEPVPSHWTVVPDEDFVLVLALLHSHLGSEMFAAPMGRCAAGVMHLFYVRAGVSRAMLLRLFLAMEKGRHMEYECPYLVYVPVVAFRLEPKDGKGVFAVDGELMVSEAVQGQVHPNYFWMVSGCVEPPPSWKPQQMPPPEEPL
Chain of PAK4 (O96013 whole entry): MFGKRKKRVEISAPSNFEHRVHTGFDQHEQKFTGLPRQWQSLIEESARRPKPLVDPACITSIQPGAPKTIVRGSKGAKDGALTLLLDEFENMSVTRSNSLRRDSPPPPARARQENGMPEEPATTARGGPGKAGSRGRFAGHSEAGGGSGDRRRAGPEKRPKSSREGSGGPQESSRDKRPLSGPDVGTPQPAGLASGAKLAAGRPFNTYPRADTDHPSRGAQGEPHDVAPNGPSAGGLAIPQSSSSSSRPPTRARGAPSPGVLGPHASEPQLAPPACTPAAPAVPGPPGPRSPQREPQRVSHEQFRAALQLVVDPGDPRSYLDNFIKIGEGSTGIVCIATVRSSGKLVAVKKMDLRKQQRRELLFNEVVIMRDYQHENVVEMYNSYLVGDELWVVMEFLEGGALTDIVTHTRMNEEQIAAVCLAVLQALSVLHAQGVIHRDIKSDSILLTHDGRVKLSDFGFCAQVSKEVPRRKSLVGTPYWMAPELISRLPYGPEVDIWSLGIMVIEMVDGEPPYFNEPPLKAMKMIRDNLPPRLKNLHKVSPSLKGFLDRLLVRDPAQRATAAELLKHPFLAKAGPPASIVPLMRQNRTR
Chain of FES (FPS) (P07332 whole entry): as the sequence (P07332 whole entry S700C) above, with C700S counted along it
Chain of TNIK (Q9UKE5 whole entry): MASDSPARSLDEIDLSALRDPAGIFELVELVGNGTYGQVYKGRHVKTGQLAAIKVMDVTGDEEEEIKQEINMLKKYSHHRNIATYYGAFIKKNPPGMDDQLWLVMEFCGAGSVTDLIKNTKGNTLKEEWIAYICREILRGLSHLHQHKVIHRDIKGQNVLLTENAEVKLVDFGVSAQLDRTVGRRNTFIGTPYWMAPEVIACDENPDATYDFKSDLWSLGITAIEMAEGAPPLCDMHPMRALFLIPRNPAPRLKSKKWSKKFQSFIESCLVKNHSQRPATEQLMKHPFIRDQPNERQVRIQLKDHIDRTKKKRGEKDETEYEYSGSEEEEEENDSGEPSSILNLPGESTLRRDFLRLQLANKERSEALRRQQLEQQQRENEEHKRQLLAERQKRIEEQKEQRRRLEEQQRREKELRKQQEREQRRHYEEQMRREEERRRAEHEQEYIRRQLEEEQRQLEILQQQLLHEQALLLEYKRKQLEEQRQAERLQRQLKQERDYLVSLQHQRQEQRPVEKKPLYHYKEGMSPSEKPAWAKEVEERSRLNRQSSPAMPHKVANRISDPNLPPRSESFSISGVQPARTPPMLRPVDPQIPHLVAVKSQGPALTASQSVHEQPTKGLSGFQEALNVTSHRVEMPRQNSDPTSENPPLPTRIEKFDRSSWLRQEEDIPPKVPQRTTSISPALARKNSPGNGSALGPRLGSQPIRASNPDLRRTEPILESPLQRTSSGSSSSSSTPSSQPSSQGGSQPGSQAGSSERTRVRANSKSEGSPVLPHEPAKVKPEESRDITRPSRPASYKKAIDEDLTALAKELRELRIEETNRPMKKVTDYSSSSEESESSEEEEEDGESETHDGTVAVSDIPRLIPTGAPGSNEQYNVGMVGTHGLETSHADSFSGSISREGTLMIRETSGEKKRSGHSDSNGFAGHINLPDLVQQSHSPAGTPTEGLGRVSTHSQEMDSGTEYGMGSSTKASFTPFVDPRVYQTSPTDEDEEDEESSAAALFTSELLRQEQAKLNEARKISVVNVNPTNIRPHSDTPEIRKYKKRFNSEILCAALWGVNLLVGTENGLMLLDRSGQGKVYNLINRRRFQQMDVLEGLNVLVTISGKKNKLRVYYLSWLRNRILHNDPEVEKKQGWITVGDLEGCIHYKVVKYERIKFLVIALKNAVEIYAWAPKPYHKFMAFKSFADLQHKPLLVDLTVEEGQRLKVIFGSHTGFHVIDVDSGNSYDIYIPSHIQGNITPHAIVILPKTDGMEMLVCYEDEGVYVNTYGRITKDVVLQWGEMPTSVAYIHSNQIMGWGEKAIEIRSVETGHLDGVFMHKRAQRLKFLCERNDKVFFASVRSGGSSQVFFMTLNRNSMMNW
Chain of LTK (TYK1) (P29376 17-864): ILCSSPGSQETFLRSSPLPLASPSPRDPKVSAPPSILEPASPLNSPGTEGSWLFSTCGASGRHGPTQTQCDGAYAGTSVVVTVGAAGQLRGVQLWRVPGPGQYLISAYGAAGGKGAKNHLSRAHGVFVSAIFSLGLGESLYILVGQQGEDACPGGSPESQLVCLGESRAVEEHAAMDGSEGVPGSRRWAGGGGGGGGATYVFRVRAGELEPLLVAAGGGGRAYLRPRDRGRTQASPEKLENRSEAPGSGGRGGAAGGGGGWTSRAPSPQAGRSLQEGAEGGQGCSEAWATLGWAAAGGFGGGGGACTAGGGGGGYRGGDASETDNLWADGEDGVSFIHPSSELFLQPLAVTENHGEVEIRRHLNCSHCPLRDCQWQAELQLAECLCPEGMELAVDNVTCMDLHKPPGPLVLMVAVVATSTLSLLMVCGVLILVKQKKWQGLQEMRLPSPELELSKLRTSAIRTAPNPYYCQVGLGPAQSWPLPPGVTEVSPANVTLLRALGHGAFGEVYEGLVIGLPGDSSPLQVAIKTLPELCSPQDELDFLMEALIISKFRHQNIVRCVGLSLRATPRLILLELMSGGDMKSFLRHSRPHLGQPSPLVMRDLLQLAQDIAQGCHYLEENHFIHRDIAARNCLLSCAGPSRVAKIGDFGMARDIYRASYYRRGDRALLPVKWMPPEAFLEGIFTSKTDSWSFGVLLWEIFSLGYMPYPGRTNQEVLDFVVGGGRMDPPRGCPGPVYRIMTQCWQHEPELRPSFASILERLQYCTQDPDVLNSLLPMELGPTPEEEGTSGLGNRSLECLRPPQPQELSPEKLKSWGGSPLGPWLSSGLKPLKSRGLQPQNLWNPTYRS
Chain of TLK2 (Q86UE8 whole entry): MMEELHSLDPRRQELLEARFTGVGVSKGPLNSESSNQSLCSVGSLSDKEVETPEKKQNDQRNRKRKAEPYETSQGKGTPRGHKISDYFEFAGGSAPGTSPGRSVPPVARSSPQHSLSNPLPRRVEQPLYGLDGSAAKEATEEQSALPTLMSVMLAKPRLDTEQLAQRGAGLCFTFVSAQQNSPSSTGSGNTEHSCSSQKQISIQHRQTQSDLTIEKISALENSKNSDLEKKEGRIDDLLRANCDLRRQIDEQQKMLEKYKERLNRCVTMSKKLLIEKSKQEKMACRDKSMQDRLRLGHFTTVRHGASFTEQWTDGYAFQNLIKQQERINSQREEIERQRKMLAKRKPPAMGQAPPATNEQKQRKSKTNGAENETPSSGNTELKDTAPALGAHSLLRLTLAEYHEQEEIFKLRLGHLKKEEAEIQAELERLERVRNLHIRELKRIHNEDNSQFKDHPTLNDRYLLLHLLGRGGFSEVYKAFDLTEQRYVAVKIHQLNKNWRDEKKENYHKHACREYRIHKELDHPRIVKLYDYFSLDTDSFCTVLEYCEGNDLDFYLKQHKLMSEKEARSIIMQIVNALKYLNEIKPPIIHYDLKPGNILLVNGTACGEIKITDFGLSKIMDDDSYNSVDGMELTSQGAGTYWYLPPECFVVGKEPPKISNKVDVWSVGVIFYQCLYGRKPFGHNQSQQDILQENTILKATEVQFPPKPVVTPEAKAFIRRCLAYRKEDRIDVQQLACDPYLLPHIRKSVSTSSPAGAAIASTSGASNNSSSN

C#CCOc1ccc(Nc2ncc(Cl)c(Nc3ccccc3NC(=O)C=C)n2)c(OC)c1 [Compound 6]
inhibition at 1 µM (ERBB2 (HER2); [1]): 2% | Inhibition at 1 µM (%) (ERBB2 (HER2)): -2% | Inhibition at 1 µM (%) (ERBB2 (HER2); listed as WEL028, 1 µM): 6% | inhibition at 1 µM (FES (FPS); [1]): 15% | Inhibition at 1 µM (%) (FES (FPS); FES (FPS), 1 µM, ZLYTE, ATP Km app, listed as WEL028, 1 µM): 17% | inhibition at 1 µM (FES (FPS); read-out: Inhibition at 1 µM (%), FES (FPS), 1 µM, ZLYTE, ATP Km app): 12% | inhibition at 1 µM (ICK; [1]): 7% | inhibition at 1 µM (ICK; read-out: Inhibition at 1 µM (%), ICK, 1 µM, LanthaScreen Binding): 8% | inhibition at 1 µM (LTK (TYK1); [1]): 43% | Inhibition at 1 µM (%) (LTK (TYK1); LTK (TYK1), 1 µM, ZLYTE, ATP Km app, listed as WEL028, 1 µM): 37% | inhibition at 1 µM (LTK (TYK1); read-out: Inhibition at 1 µM (%), LTK (TYK1), 1 µM, ZLYTE, ATP Km app): 48% | inhibition at 1 µM (MAP2K5 (MEK5); [1]): 53% | Inhibition at 1 µM (%) (MAP2K5 (MEK5); MAP2K5 (MEK5), 1 µM, LanthaScreen Binding, listed as WEL028, 1 µM): 52% | inhibition at 1 µM (MAP2K5 (MEK5); read-out: Inhibition at 1 µM (%), MAP2K5 (MEK5), 1 µM, LanthaScreen Binding): 53% | inhibition at 1 µM (MAPK13 (p38 delta); [1]): 5% | Inhibition at 1 µM (%) (MAPK13 (p38 delta); MAPK13 (p38 delta), 1 µM, ZLYTE, ATP Km app, listed as WEL028, 1 µM): 6% | inhibition at 1 µM (MAPK13 (p38 delta); read-out: Inhibition at 1 µM (%), MAPK13 (p38 delta), 1 µM, ZLYTE, ATP Km app): 4% | inhibition at 1 µM (MUSK; [1]): 26% | Inhibition at 1 µM (%) (MUSK; MUSK, 1 µM, ZLYTE, ATP Km app, listed as WEL028, 1 µM): 33% | inhibition at 1 µM (MUSK; read-out: Inhibition at 1 µM (%), MUSK, 1 µM, ZLYTE, ATP Km app): 19% | inhibition at 1 µM (PAK4; [1]): -4% | Inhibition at 1 µM (%) (PAK4; PAK4, 1 µM, ZLYTE, ATP Km app, listed as WEL028, 1 µM): -8% and 1% | Inhibition at 1 µM (%) (SPHK1; 1 µM, Adapta, ATP Km app, listed as WEL028, 1 µM): 4% and 1% | inhibition at 1 µM (SPHK1; [1]): 2% | Inhibition at 1 µM (%) (TAOK2 (TAO1); 1 µM, ZLYTE, ATP Km app, listed as WEL028, 1 µM): -1% and 9% | inhibition at 1 µM (TAOK2 (TAO1); [1]): 4% | Inhibition at 1 µM (%) (TLK2; [2]): 1% | inhibition at 1 µM (TLK2; [1]): 0% | Inhibition at 1 µM (%) (TNIK; [2]): 4% | inhibition at 1 µM (TNIK; [1]): 5% | inhibition at 1 µM (TNIK; read-out: Inhibition at 1 µM (%), 1 µM, LanthaScreen Binding): 6% | Inhibition of FES in live neutrophils (endogenous FES^S700C; 100 nM, 1 h): complete and selective inhibition of FES | Relative FES labeling (%) (endogenous FES^S700C; Figure 7b, replicates, listed as WEL028): 9.291% and 9.41% and 8.966%

Reference: paper PMC7316778 (Nature Communications, 2020)
